Target: Tyrosine-protein phosphatase non-receptor type 7 (Homo sapiens) (UniProt P35236)
Experiment: HePTP phosphatase inhibitor potency, dose response, biochemical, fluorescence, secondary assay (AID 1077)
Details: recombinant HePTP phosphatase, fluorogenic substrate

Chain of Tyrosine-protein phosphatase non-receptor type 7 (Homo sapiens) (P35236 whole entry, looked up): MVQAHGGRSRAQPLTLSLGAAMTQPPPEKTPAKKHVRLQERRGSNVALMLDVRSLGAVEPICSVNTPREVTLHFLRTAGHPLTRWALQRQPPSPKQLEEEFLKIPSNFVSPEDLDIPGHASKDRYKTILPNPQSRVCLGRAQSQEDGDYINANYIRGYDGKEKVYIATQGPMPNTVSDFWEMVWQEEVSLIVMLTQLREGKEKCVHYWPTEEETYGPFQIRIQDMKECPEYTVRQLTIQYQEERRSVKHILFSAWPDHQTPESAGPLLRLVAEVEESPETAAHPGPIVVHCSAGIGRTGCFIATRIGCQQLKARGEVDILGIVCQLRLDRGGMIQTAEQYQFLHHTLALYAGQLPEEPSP

- IC50: 15 µM
SMILES: CCOc1ccc2nc(NC(=O)CSC3=Nc4sc(C)c(C)c4C(=O)C3)sc2c1

Source: PubChem BioAssay AID1077 (Sanford-Burnham Center for Chemical Genomics, 2009)
